What was measured:
Experiment in all cases: cell viability (% survival relative to DMSO control, bortezomib = 0%); higher = less cytotoxic
Settings in all cases: 72 h
[1] = tested on: ML-2
Method in brief: (§1)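 Fifteen myeloid leukaemia cell lines (10 AML, 5 CML) were seeded at a density titrated to the linear growth range. They went into 384-well plates with compounds pre-printed at 1, 10, 100, 1000 or 10000 nM in duplicate. After 72 h at 37 °C with 5% CO2, viability was read by CellTiter-Glo luminescence. Values are percent survival, with vehicle set to 100% and a 10 µM positive control to 0%, averaged over the duplicates.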

[2] = tested on: MOLM-13
Method in brief: as §1

[3] = tested on: NOMO-1
Method in brief: as §1

[4] = tested on: THP-1
Method in brief: as §1

Row | Structure (SMILES) | cell viability ([1]; 1 nM) [%] | cell viability ([1]; 10 nM) [%] | cell viability ([1]; 100 nM) [%] | cell viability ([1]; 1000 nM) [%] | cell viability ([1]; 10000 nM) [%] | cell viability ([2]; 1 nM) [%] | cell viability ([2]; 10 nM) [%] | cell viability ([2]; 100 nM) [%] | cell viability ([2]; 1000 nM) [%] | cell viability ([2]; 10000 nM) [%] | cell viability ([3]; 1 nM) [%] | cell viability ([3]; 10 nM) [%] | cell viability ([3]; 100 nM) [%] | cell viability ([3]; 1000 nM) [%] | cell viability ([3]; 10000 nM) [%] | cell viability ([4]; 1 nM) [%] | cell viability ([4]; 10 nM) [%] | cell viability ([4]; 100 nM) [%] | cell viability ([4]; 1000 nM) [%] | cell viability ([4]; 10000 nM) [%]
1 | [N-]=[N+]=CC(=O)CC[C@H](N)C(=O)O [6-Diazo-5-oxo-L-norleucine] | 95.1 | 95.3 | 98.3 | 116 | 110 | 106 | 111 | 119 | 101 | 116 | 98.9 | 99.9 | 104 | 97.1 | 106 | 98.1 | 96.7 | 100 | 102 | 106
2 | Sc1ncnc2nc[nH]c12 [6-mercaptopurine] | 111 | 91.3 | 87.9 | 56.1 | 13.5 | 117 | 87.6 | 108 | 53 | 16 | 108 | 86.7 | 88.6 | 41.5 | 30.5 | 98.3 | 106 | 98.1 | 90.6 | 85.2
3 | O=C(O)CC[C@H](NC(=O)c1ccc([N+](=O)[O-])cc1)C(=O)O [(S)-2-(4-Nitrobenzamido)pentanedioic acid] | 103 | 91.2 | 101 | 93.7 | 95.4 | 89 | 124 | 94.6 | 98.5 | 105 | 92.4 | 95 | 99.6 | 105 | 95.6 | 102 | 107 | 93.7 | 105 | 95.5
4 | O=C1Nc2ccccc2/C1=C\NCCc1ccc(O)c(O)c1 [AC1NZZMF] | 113 | 111 | 101 | 95.4 | 75.9 | 97.6 | 104 | 101 | 108 | 88.9 | 105 | 111 | 98 | 113 | 99.9 | 108 | 103 | 100 | 108 | 79.9
5 | Cc1ccc(S(=O)(=O)NC2c3ccccc3Oc3ccccc32)cc1 [AH-7614] | 97.3 | 99.2 | 104 | 104 | 114 | 95.3 | 113 | 111 | 102 | 93.7 | 102 | 102 | 104 | 97.1 | 103 | 96.9 | 96.7 | 99 | 96.7 | 100
6 | C[C@]12CC[C@H](O)CC1=CC[C@@H]1[C@@H]2CC[C@]2(C)C(c3cccnc3)=CC[C@@H]12 [Abiraterone] | 116 | 97.2 | 101 | 118 | 110 | 113 | 122 | 111 | 117 | 69.9 | 106 | 104 | 97.6 | 112 | 108 | 99.4 | 102 | 104 | 113 | 108
7 | O=C(COc1ccc(C(=O)c2ccccc2)cc1)NC1CCN(Cc2ccccc2)CC1 [AdipoRon] | 84 | 107 | 94.5 | 97.6 | 65.9 | 94 | 106 | 93.6 | 105 | 76.5 | 102 | 107 | 96.3 | 96.7 | 91.1 | 96.2 | 98.8 | 102 | 91.6 | 104
